# How the values were obtained:
# [1] = molecular target: Tyrosine-protein kinase JAK1 (Homo sapiens, UniProt P23458); experiment: Selectivity interaction (Kinase panel (KiNativ target engagement assay in Jurkat cells)) EUB0001635a JAK1; assay type: cell-based; details: Selectivity number of off-targets 0.0, Selectivity number of targets 233.0, Source Knowledge https://www.sciencedirect.com/science/article/pii/S2451945619300674?via%3Dihub, at 1 µM
# [2] = molecular target: T1, Protein arginine N-methyltransferase 7 (Homo sapiens) (UniProt Q9NVM4); details: at 1 µM
# T1 sequence (whole entry): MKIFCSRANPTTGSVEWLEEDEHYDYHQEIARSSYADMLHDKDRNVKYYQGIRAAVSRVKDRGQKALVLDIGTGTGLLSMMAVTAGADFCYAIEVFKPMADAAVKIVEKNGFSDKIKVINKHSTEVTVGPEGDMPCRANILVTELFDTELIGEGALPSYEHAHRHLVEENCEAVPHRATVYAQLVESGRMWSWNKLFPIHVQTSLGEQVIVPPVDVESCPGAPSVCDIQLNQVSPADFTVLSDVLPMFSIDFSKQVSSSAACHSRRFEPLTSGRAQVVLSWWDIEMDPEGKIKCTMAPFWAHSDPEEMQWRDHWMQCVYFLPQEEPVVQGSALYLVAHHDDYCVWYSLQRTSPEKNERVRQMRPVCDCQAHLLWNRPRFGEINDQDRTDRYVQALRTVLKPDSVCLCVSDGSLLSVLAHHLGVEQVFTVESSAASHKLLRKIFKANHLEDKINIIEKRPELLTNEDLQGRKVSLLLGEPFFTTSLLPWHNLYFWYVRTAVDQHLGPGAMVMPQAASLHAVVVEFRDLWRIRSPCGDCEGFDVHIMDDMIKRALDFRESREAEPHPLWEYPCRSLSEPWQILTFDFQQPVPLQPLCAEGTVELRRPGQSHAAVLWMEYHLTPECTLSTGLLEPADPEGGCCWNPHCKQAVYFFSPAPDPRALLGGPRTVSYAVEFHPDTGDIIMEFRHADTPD
# [3] = molecular target: T2, Serine/threonine-protein kinase DCLK2 (Homo sapiens) (UniProt Q8N568); experiment: Selectivity interaction (KinomeScan (DiscoverX)) EUB0001619a DCLK2; details: at 1 µM
# T2 sequence (whole entry): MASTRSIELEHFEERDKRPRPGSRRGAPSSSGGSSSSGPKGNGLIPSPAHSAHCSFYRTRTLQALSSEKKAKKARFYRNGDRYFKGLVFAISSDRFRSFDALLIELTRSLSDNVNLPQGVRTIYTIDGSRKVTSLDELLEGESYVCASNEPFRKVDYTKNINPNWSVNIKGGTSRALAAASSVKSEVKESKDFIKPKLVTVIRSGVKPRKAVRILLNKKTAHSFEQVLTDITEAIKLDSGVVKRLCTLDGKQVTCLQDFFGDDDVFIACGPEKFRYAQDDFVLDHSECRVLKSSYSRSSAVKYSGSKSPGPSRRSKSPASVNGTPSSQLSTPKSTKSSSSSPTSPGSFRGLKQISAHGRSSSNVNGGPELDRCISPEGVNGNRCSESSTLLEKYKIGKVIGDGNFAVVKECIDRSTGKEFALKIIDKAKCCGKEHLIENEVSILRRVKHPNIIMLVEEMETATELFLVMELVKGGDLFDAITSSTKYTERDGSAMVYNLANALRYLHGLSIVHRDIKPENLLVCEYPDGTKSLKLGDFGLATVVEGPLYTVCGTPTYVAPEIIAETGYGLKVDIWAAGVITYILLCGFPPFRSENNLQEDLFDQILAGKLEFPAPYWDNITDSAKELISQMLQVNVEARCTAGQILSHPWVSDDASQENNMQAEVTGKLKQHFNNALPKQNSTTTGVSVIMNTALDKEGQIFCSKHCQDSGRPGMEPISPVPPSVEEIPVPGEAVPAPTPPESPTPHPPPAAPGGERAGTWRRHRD
# [4] = molecular target: Phosphatidylinositol 3-kinase catalytic subunit type 3 (Homo sapiens, UniProt Q8NEB9); experiment: Selectivity interaction (ActivX KiNativ screen (ex vivo kinase selectivity in human PBMCs)) EUB0001619a PIK3C3; assay type: cell-based; details: PBMC, at 1 µM
# Phosphatidylinositol 3-kinase catalytic subunit type 3, sequence (Q8NEB9 whole entry, the tested form may be a part): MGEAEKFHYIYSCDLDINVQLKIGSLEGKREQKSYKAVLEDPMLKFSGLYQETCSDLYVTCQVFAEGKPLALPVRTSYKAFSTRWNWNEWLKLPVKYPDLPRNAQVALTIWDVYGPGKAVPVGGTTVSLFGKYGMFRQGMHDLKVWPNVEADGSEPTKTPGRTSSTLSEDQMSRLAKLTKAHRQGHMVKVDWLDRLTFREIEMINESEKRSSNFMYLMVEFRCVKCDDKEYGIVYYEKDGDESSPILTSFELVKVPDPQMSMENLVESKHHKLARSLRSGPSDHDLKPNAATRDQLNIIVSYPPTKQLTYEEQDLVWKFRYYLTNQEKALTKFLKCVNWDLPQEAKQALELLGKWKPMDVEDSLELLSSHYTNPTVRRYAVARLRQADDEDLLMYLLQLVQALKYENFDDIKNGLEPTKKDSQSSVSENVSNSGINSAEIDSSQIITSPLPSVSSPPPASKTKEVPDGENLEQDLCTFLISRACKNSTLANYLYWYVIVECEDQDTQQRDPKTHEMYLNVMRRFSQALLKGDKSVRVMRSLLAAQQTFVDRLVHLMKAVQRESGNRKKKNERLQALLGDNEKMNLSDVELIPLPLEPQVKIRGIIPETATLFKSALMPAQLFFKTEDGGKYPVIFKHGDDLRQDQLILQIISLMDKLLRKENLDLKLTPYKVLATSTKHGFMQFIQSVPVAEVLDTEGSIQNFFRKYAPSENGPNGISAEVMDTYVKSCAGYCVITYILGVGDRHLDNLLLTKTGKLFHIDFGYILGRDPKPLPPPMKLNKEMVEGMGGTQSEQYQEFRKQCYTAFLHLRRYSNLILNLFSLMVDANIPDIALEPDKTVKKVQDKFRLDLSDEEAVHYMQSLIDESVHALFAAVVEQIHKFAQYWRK
# [5] = molecular target: LIM domain kinase 2 (Homo sapiens) (UniProt P53671); experiment: Selectivity interaction (KinomeScan (DiscoverX)) EUB0000618a LIMK2; details: at 10 µM
# LIM domain kinase 2 (Homo sapiens), sequence (P53671 whole entry, looked up, the tested form may be a part): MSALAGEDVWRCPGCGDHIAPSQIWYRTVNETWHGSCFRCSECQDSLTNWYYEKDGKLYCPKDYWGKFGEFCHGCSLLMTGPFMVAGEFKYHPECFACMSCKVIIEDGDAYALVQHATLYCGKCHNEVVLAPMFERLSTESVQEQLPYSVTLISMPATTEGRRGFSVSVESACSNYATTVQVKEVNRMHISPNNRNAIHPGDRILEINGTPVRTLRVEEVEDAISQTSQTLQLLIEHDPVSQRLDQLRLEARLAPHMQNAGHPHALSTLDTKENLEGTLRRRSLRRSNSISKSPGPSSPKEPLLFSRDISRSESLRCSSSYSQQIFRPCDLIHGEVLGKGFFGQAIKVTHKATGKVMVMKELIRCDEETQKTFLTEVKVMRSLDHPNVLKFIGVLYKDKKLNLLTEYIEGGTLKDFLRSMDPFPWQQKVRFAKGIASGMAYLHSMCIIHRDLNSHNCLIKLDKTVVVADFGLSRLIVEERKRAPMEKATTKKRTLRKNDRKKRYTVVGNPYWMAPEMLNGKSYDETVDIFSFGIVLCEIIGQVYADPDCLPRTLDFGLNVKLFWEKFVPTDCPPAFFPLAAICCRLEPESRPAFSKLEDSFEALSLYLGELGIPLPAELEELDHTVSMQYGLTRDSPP
# [6] = molecular target: T3, SNF-related serine/threonine-protein kinase (Homo sapiens) (UniProt Q9NRH2); experiment: Selectivity interaction (ActivX KiNativ screen (kinase selectivity in THP-1 cell lysates)) EUB0000639a SNRK; assay type: subcellular; details: lysate, at 0.01 µM
# T3 sequence (whole entry): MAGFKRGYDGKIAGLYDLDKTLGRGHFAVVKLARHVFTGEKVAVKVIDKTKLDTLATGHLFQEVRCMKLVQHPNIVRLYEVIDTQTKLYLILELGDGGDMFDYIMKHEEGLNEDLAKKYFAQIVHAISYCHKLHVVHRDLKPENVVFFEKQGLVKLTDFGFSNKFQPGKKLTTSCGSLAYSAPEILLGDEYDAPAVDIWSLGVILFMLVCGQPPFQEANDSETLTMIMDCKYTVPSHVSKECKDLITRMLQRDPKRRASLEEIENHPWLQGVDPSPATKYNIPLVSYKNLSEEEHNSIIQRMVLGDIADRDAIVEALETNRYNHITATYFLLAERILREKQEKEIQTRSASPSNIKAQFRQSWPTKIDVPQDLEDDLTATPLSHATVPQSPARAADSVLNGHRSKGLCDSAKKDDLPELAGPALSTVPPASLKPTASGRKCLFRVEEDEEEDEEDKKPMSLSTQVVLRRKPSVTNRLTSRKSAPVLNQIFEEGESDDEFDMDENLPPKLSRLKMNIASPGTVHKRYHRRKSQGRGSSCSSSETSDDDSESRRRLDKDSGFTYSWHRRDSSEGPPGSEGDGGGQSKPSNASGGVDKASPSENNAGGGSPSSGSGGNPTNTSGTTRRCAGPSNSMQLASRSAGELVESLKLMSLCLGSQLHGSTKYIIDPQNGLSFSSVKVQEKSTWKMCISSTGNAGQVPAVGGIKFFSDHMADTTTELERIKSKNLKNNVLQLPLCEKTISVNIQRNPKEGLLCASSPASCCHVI
# Tyrosine-protein kinase JAK1, sequence (P23458 whole entry): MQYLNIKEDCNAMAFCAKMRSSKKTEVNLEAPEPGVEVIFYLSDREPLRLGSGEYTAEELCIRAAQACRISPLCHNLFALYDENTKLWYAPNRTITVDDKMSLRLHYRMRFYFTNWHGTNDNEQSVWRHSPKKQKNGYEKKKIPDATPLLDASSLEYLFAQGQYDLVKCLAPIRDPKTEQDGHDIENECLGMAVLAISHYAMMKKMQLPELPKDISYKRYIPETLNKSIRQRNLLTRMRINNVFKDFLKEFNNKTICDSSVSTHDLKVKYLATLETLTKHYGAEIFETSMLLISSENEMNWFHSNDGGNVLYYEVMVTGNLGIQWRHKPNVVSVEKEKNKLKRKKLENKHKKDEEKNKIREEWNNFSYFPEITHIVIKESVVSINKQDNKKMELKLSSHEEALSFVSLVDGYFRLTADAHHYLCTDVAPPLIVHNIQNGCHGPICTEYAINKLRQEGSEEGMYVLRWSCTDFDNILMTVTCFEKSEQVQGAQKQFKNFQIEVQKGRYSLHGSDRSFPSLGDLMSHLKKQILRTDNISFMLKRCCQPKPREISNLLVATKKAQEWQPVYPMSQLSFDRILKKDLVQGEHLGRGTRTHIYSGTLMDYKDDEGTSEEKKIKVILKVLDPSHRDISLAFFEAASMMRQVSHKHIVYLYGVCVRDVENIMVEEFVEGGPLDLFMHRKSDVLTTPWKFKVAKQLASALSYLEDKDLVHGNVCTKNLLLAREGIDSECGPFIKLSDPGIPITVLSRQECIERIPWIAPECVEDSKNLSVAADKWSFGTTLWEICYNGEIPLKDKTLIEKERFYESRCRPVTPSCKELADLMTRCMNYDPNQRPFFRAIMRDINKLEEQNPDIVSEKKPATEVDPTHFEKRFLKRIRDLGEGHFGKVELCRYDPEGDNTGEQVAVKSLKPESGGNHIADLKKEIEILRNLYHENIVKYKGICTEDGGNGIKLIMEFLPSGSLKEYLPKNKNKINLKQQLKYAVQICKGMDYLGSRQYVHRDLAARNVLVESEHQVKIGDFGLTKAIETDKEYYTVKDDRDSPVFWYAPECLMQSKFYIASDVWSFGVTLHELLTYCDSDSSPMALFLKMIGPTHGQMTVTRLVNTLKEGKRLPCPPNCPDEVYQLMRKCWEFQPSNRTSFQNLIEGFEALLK
structure (smiles),measurement,setting,value
C=CC(=O)Nc1ccc(C(=O)Nc2[nH]nc3c2CN(C(=O)N[C@H](CN(C)C)c2ccccc2)C3(C)C)cc1,% of engagement,[1],3.6%
CNCCN1CCC(c2cc(CN(C)C(=O)c3cccc(Oc4ccccc4)c3)ccn2)CC1,% activity,[2],> 90%
N#Cc1cccc(-c2c[nH]c3ncnc(N4CCOCC4)c23)c1,% of control,[3],100%
same,% of inhibition,[4],-17%
O[C@H]1CC[C@H](Nc2ncc3nc(Nc4c(F)cc(F)cc4F)n([C@H]4CCOC4)c3n2)CC1,% of control,[5],29%
CC[C@@H]1[C@H](F)C(=O)N[C@@H]1COc1nccc2cc(C(N)=O)c(OC)cc12 [ZIMLOVISERTIB],% of inhibition,[6],0.6%

# — ChEMBL document CHEMBL5465560, “Selectivity Literature for EUbOPEN Chemogenomic Library” (2024)
